Non-standard residues stand in square brackets, D forms with d. Residues, ends and D or L forms follow the SMILES beside them. Arg(Me) = CNC(=N)NCCC[C@H](N)C(=O)O; d4Pal = N[C@H](Cc1ccncc1)C(=O)O; azaGly = NNC(=O)O
Experiments:
Type in all cases: functional, Homo sapiens
Parameters in all cases: dose or concentration left out as unconfirmed
Colon cancer organoid [1] = assay: Identification of compartment-specific drug sensitivities in O06 CRC organoid-stroma F06 CAF co-cultures. Organoid is transduced with Lucferase2-P2A-EGFP lentivirus, fibroblast with Renilla-dsRed lentivirus. Dual-Glo Luciferase assay is used to report viability data.
Colon cancer organoid [2] = assay: Identification of compartment-specific drug sensitivities in O14 CRC organoid-stroma F14 CAF co-cultures. Organoid is transduced with Lucferase2-P2A-EGFP lentivirus, fibroblast with Renilla-dsRed lentivirus. Dual-Glo Luciferase assay is used to report viability data.
Colon cancer organoid [3] = assay: Identification of compartment-specific drug sensitivities in O20 CRC organoid-stroma F20 CAF co-cultures. Organoid is transduced with Lucferase2-P2A-EGFP lentivirus, fibroblast with Renilla-dsRed lentivirus. Dual-Glo Luciferase assay is used to report viability data.
[4] = Transduced with Lucferase2-P2A-EGFP lentivirus
[5] = Transduced with Renilla-dsRed lentivirus

SMILES | Cell Viability (Colon cancer organoid [1]; [4]) [%] | Cell Viability (Colon cancer organoid [1]; [5]) [%] | Cell Viability (Colon cancer organoid [2]; [4]) [%] | Cell Viability (Colon cancer organoid [2]; [5]) [%] | Cell Viability (Colon cancer organoid [3]; [4]) [%] | Cell Viability (Colon cancer organoid [3]; [5]) [%]
Cc1ccc(-c2cnc([C@@]3(O)CC[C@H](C(=O)O)C(C)(C)C3)s2)cc1Nc1cccc(C(F)(F)F)n1 [MRL-SYKi-NC] | 119.382 | 86.5869 | 134.887 | 107.343 | 106.503 | 131.597
C=CC(=O)Nc1cccc(C(=O)Nc2ccc(Nc3cc(-c4[nH]c(SC)nc4C)ccn3)cc2)c1 | 87.3077 | 89.5907 | 116.406 | 116.909 | 175.79 | 71.728
O=C(O)c1ccc(-c2coc3ncc(-c4ccccc4)cc23)cc1Cl | 84.9927 | 102.883 | 182.141 | 68.2046 | 189.357 | 126.188
COc1ncc(F)cc1CNc1ccc(Cc2c[nH]c3ncc(C)cc23)c(F)n1 [PLX-5622] | 82.7626 | 63.3822 | 119.621 | 35.1649 | 206.903 | 55.6932
C[C@@]1(Cc2ccc(C#N)cc2)C(=O)N(c2cc(Cl)cc(Cl)c2)c2ncc(C(=O)NC3(c4nc(C5CCC5)no4)CC3)n21 [BI 9446] | 82.5213 | 98.3986 | 102.867 | 111.855 | 72.3076 | 136.535
N#Cc1cnc(Nc2cc(NC[C@H]3CNCCO3)c(C(F)(F)F)cn2)cn1 [SRA-737] | 89.9461 | 120.027 | 25.2627 | 122.808 | 103.573 | 133.202
Cc1nc(NC(=O)N2CCC[C@H]2C(N)=O)sc1-c1ccnc(C(C)(C)C(F)(F)F)c1 [ALPELISIB] | 74.6278 | 68.5217 | 47.6603 | 61.6268 | 70.8375 | 99.8659
CC(=O)NCC(=O)N1[C@@H]2CC[C@H]1c1ccc(Nc3ncc(C(F)(F)F)c(NC4CCC4)n3)cc12 [PF-03814735] | 12.0789 | 82.3636 | 7.804 | 45.5161 | 4.585 | 155.761
Cc1c(N2CCNCC2)nc2ccc(Br)cc2c1C(=O)NC[C@H](CCC(=O)O)c1ccccc1Cl [BAY-403] | 78.4474 | 70.4581 | 117.744 | 98.3874 | 121.312 | 79.2483
CNC(=N)NCCC[C@H](NC(=O)[C@H](CC(C)C)NC(=O)NNC(=O)[C@H](Cc1ccccc1)NC(=O)[C@H](CO)NC(=O)[C@H](CC(N)=O)NC(=O)[C@@H](Cc1ccncc1)NC(=O)[C@H](N)Cc1ccc(O)cc1)C(=O)N[C@@H](Cc1ccccc1)C(N)=O [KISS1-305] (H-[dY][d4Pal]NSF[azaGly]L[Arg(Me)]F-NH2) | 113.14 | 104.585 | 102.723 | 96.9932 | 118.72 | 125.679
CNC(=O)c1ccccc1Nc1cc(Nc2ccc(N3CCOCC3)cc2OC)ncc1C(F)(F)F [VS-4718] | 52.8737 | 57.2971 | 18.7172 | 41.7282 | 13.9942 | 72.4438
COc1cc(C(=O)N2CC[C@@H](O)[C@@H](N)C2)cc2nc(-c3cc4ccccc4n3CC3CC3)n(C)c12.Cl | 124.227 | 121.721 | 110.648 | 103.392 | 99.5485 | 114.018
Cl.O=C(O)c1cc(-c2ccc(C3CCNCC3)cc2)c2ccc(-c3ccc(C(F)(F)F)cc3)cc2c1 | 107.895 | 117.47 | 158.935 | 99.9399 | 106.654 | 101.384
Cc1ccc(NC(=O)Nc2cc(C(F)(F)F)ccc2F)cc1Nc1ccc2c(c1)NC(=O)/C2=C\c1ccc[nH]1 | 46.1941 | 95.0963 | 123.441 | 77.7474 | 98.8429 | 67.3177
C=CC(=O)Nc1ccc2[nH]c(=O)n(C3CCN(C(=O)c4ccc(-c5nc6cc[nH]c(=O)c6cc5-c5ccccc5)cc4)CC3)c2c1 | 100.634 | 129.997 | 66.8064 | 102.36 | 102.668 | 80.5582
Cl.Cn1cncc1[C@](O)(COc1ccc(C#N)cc1-c1ccc(OC(F)(F)F)cc1)c1ccc(C#N)cc1 | 46.0933 | 149.066 | 31.1337 | 75.4889 | 15.3114 | 150.357
O[C@H]1CC[C@H](Nc2ncc3nc(Nc4c(F)cc(F)cc4F)n([C@H]4CCOC4)c3n2)CC1 [TANZISERTIB] | 96.802 | 109.826 | 133.231 | 127.243 | 128.622 | 97.8883
Cc1cc(C)cc([C@H]2c3cc(C)ccc3NC(=O)CN2C(=O)c2ccc(Br)s2)c1 | 94.0417 | 115.465 | 153.941 | 101.442 | 134.675 | 98.7461
CNC(=O)c1cc(C(=O)N[C@H]2[C@@H]3COC[C@@H]32)cc2c1O[C@@H](CF)[C@@H]2c1ccccc1 [GSK943] | 83.6271 | 130.888 | 96.5907 | 102.587 | 107.286 | 108.354
CN1CCN(c2cnc3c(C4CCN(C(=O)c5ccc(OC(F)(F)F)cc5N)CC4)ncnc3c2)CC1 [BAY-885] | 128.922 | 132.533 | 91.6174 | 96.8328 | 78.4575 | 141.163
CC1=C(C#N)C(c2ccc3c(c2)c(NC(=O)c2ccccc2C)nn3C)C(C#N)=C(C)N1 [BAY-974] | 90.4588 | 87.5124 | 92.3005 | 117.089 | 105.235 | 128.576
CO[C@H]1CNC[C@@H](OCC2CCC(F)(F)CC2)[C@@H]1Nc1ncc(-c2cncc(C)c2)c2cc(C)c(=O)[nH]c12 | 95.0954 | 138.476 | 145.9 | 102.552 | 171.771 | 122.949
CC(C)N(CCCNC(=O)Nc1ccc(C(C)(C)C)cc1)C[C@H]1O[C@@H](n2cc(Br)c3c(N)ncnc32)[C@H](O)[C@@H]1O | 62.4885 | 97.8527 | 74.0278 | 90.8718 | 59.6009 | 110.156
C[C@@H]1CCNC(=O)c2cc3ccc(C(=O)Nc4nc5ccccc5n4CCCN(C)C)cc3n21 | 65.6776 | 63.6239 | 75.4357 | 82.3994 | 65.8011 | 147.158
CN(C)[C@H]1CN(C2CCc3cccc(F)c32)C[C@@H]1c1ccc(N2CCN(S(C)(=O)=O)CC2)cc1 (some centres undefined) | 82.1891 | 127.07 | 77.8807 | 109.764 | 31.9931 | 145.189
O=C(O)c1ccc(-c2c[nH]c3ncc(-c4ccccc4)cc23)cc1C1CCCC1 [GSK-650394] | 92.5027 | 110.19 | 112.026 | 70.7781 | 93.9419 | 129.576
Cc1nnc2c3ccccc3c(N[C@@H](C)[C@H](c3ccccc3)N(C)C)nn12 | 95.7989 | 115.114 | 110.519 | 106.748 | 82.8594 | 127.368
Cc1c(Nc2ccc(S(=O)(=O)N3CCN(C)CC3)cc2F)nc2ccc(Nc3cnn(C4CC4)c3)cn2c1=O | 81.8172 | 120.859 | 108.37 | 91.7144 | 118.006 | 135.679
FC(F)c1nc2ccccc2n1-c1nc(N2CCOCC2)nc(N2CCOCC2)n1 [ZSTK-474] | 29.4296 | 101.088 | 72.7664 | 74.8211 | 124.253 | 95.7276

— ChEMBL document CHEMBL5608141, “Identification of compartment-specific drug sensitivities in CRC organoid-stroma co-cultures” (2024)
